Activity calls are given as the source filed them.
What was measured:
HEK293 [1] = experiment: HEK293T cell viability loss, resazurin readout – resazurin fluorescence, cytotoxicity control for NF-kB activator project, SAR follow-up (AID 493251); type: functional, cell-based; settings: Homo sapiens
HEK293 [2] = experiment: cells; type: functional, cell-based; settings: Homo sapiens
Streptokinase A = biological target: T1, Streptokinase A (Streptococcus pyogenes serotype M1, UniProt P10520); experiment: viability-normalized secreted streptokinase activity reduction – plasminogen activation absorbance, OD405, dose response (AID 1914); type: functional, Streptococcus pyogenes M1 GAS;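 note: secreted streptokinase activity via plasminogen activation per viability signal from cell pellet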
T1 sequence (P10520 whole entry): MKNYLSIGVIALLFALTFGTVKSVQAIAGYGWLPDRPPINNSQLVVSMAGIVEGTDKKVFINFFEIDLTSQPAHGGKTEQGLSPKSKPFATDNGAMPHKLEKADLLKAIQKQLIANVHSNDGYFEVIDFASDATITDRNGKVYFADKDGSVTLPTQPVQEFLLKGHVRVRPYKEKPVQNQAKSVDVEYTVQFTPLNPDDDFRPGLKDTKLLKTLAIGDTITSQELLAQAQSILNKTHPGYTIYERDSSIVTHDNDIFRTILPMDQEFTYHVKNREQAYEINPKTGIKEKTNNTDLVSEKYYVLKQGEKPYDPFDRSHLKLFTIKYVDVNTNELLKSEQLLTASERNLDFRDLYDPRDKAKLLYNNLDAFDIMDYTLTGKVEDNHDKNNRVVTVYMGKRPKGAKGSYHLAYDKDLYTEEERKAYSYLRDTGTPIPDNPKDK

[3] = PAX5 cellular inhibition readout – cell-based, plate reader, dry powder samples, selectivity assay for PAX8 inhibitor project, dose response (AID 743047); type: functional;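 note: HEK293 cells carrying a Pax5 driven CD19 promoter luciferase reporter; potency of inhibitors that lower reporter luminescence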
[4] = inhibitors acting on PAX2 in cells – cell-based, plate reader, dry powder samples, selectivity assay for PAX8 inhibitor project, dose response (AID 743048); type: functional;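 note: HEK293 cells carrying a WT1 promoter luciferase reporter driven by expressed Pax2; potency is for inhibition of Pax2 driven reporter signal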
[5] = biological target: Nucleotide-binding oligomerization domain-containing protein 2 (Homo sapiens, UniProt Q9HC29); experiment: inhibition of NOD2-driven NF-kB reporter – cell-based, luminescence, uHTS, HEK293 (AID 1566); type: functional
Sequence of Nucleotide-binding oligomerization domain-containing protein 2 (Q9HC29 whole entry, the tested form may be a part): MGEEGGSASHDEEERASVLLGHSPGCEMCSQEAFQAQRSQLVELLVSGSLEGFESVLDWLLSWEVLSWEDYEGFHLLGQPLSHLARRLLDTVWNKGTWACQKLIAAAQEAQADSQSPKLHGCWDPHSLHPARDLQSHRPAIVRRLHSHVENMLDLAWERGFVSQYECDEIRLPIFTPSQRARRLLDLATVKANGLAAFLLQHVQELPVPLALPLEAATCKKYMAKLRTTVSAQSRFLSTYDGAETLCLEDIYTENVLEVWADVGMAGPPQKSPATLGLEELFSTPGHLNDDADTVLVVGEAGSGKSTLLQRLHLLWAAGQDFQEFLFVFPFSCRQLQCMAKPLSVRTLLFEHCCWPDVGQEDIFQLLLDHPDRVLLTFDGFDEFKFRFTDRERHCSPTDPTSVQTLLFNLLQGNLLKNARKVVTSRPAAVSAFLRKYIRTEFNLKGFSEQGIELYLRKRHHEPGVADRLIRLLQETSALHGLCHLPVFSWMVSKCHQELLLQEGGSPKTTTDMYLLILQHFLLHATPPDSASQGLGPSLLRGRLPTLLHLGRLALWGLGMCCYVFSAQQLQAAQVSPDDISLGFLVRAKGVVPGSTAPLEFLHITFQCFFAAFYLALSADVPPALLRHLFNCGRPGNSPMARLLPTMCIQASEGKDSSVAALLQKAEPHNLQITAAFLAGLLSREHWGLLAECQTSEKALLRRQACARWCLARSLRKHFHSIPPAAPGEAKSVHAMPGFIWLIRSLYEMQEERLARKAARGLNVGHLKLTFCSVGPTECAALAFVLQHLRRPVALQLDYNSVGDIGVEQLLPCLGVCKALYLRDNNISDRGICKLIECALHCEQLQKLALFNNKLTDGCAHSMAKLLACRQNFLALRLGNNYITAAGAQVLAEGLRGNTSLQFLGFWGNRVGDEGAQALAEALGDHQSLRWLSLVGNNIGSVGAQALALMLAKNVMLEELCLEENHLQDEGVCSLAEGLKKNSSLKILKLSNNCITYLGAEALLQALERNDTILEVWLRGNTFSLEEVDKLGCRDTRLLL

[6] = PAX8-dependent cell viability loss – plate reader, dry powder, dose response (AID 743049); type: functional, cell-based
BJ [7] = experiment: BJ-TERT-LT-ST fibroblast viability loss – cell-based, RAS-independent, luminescence, dose response (AID 1935); type: functional; settings: Homo sapiens;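 note: BJ fibroblasts immortalized with TERT plus LT and ST oncogenes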
BJ [8] = experiment: cells; type: functional, cell-based; settings: Homo sapiens
[9] = Luminescence-based dose response cell-based high throughput screening assay for cytotoxic compounds using the IEC-6 intestinal epithelial cell line. [Related pubchem assays: 1858 (Summary AID.), 1825 (Counterscreen.), 1907 (Confirmation screen.)]; type: functional
HEK293 [10] = experiment: cells; type: functional, cell-based; settings: Homo sapiens; remark: listed apart in the source
[11] = DRD fibroblast viability loss – cell-based, non-viral oncogenic, luminescence, dose response (AID 1934); type: functional; settings: Homo sapiens
Paired box protein Pax-8 = Paired box protein Pax-8 (Homo sapiens, UniProt Q06710); experiment: PAX8 transcriptional activity inhibition in RMG-I – RMG-I cells, luciferase, cherry-pick, dose response (AID 687027); type: functional, cell-based;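 note: luciferase reporter driven by Pax8 target thyroperoxidase promoter measured by SteadyGlo luminescence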
Sequence of Paired box protein Pax-8 (Q06710 whole entry): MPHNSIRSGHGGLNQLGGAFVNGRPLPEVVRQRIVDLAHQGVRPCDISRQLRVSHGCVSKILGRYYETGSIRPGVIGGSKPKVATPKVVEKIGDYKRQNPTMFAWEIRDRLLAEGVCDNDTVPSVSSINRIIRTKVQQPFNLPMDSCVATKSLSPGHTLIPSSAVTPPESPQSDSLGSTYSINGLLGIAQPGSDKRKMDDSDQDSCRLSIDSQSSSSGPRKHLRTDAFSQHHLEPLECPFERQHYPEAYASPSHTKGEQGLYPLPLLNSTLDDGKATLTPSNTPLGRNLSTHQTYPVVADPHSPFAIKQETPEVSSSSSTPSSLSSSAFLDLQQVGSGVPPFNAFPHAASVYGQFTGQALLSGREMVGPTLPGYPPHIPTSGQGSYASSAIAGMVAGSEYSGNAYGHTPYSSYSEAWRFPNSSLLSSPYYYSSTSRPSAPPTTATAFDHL

HEK293 [12] = experiment: NOD2 signaling inhibitors in MDP-stimulated cells, cell-based, uHTS, luminescence (AID 2001); type: functional; settings: Homo sapiens
Streptococcus = experiment: GAS UMAA2166 growth inhibition – luminescence, BacTiterGlo, counter-screen for streptokinase expression inhibitor project, dose response (AID 1915); type: functional, organism-based;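 note: potency for reduction of bacterial viability or growth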
[13] = biological target: Glucose-6-phosphate 1-dehydrogenase (Homo sapiens, UniProt P11413); experiment: inhibition of Homo sapiens G6PD, dose series – biochemical, fluorescence, selectivity assay for P. falciparum G6PD inhibitor project, dose response (AID 504792); type: functional
Sequence of Glucose-6-phosphate 1-dehydrogenase (P11413 whole entry): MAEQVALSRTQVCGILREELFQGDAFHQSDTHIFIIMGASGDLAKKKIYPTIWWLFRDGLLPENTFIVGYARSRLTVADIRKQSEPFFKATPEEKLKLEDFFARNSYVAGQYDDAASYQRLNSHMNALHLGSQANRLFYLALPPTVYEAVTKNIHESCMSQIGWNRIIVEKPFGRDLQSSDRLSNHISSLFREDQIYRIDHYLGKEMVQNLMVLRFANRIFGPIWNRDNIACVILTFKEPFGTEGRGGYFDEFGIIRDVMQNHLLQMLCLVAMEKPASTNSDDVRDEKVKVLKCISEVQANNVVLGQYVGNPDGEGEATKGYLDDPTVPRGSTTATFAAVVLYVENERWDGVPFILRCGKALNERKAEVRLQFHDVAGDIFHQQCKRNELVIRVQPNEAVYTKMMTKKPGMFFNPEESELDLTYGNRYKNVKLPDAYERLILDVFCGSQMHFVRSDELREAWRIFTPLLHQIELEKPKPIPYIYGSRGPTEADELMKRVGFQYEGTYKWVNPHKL

BJ [14] = experiment: BJ-TERT fibroblast viability loss – cell-based, RAS-independent, luminescence, dose response (AID 1933); type: functional; settings: Homo sapiens
HEK293 [15] = experiment: inhibition of NOD1-driven NF-kB reporter – cell-based, luminescence, uHTS, primary screen (AID 1578); type: functional; settings: Homo sapiens
BJ [16] = experiment: growth inhibition of engineered Ras-driven BJ cells – cell-based, alamar blue fluorescence, cherrypicked samples, dose response (AID 2631); type: functional; settings: Homo sapiens;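 note: confirmatory dose-response assay in RAS-dependent BJ fibroblasts engineered with TERT, LT and ST, with cytotoxicity read by fluorescence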
[17] = COV434 cell viability loss – plate reader, dry powder, SA7, cytotoxicity control for PAX8 inhibitor project, dose response (AID 743145); type: functional, cell-based
[18] = biological target: Type-1 angiotensin II receptor (Homo sapiens, UniProt P30556); experiment: antagonism of angiotensin II type 1 receptor – cell-based, uHTS hits, selectivity assay for APJ receptor antagonist project, dose response (AID 463214); type: functional;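 note: antagonist potency against angiotensin II stimulated AT1 response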
Sequence of Type-1 angiotensin II receptor (P30556 whole entry): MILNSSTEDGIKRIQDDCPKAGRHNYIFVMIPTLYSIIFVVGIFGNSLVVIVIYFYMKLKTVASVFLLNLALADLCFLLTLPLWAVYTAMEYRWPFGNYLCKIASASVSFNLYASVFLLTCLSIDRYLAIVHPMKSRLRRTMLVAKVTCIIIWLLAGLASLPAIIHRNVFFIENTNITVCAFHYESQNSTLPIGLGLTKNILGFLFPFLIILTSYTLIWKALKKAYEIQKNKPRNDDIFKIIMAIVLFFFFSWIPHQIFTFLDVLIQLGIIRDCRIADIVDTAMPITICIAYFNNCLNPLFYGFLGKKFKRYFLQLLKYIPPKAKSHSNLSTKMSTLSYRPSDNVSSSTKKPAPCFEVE

Beta-galactosidase = Beta-galactosidase (Escherichia coli, UniProt Q8VNN2); experiment: PubChem AID 485352; type: functional
Sequence of Beta-galactosidase (Q8VNN2 whole entry): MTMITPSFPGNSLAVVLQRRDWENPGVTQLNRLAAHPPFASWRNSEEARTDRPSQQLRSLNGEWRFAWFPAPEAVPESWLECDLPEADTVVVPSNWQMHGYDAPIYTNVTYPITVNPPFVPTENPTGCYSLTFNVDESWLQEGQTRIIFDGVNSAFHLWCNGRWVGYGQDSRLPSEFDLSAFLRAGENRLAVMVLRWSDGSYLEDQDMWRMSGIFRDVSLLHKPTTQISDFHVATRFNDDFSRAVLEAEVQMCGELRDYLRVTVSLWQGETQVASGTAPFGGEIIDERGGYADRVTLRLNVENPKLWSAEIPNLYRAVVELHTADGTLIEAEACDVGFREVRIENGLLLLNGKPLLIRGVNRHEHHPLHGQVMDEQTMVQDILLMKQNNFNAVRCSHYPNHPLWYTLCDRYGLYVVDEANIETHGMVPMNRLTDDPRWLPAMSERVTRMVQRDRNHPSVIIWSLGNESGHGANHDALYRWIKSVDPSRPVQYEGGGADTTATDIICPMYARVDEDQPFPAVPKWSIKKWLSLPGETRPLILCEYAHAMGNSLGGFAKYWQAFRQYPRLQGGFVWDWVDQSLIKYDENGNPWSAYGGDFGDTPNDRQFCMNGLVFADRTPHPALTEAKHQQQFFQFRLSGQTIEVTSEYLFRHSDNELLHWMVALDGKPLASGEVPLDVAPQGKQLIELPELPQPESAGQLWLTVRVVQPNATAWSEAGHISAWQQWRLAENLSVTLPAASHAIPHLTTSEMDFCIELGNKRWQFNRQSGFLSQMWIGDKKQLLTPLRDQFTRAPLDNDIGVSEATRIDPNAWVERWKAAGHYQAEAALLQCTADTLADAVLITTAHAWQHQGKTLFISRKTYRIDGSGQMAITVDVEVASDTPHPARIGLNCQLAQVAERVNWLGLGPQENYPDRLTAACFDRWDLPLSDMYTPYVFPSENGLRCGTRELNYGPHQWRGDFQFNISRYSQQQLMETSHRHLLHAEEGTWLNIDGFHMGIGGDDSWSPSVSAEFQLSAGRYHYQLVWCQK

[19] = OV-90 cell viability loss – plate reader, dry powder, SA8, PAX8 inhibitor project, dose response (AID 743149); type: functional, cell-based
HEK293 [20] = experiment: SAR Analysis of small molecule inhibitors of both B-cell and T-cell specific antigen receptor-induced NF-kB activation in a HEK-293T cell line using a luminescence assay. [Related pubchem assays (depositor defined):AID435003, AID435022, AID465, AID489019, AID489029]; type: functional, cell-based; settings: Homo sapiens
Jurkat = experiment: SAR Analysis of small molecule inhibitors of both B-cell and T-cell specific antigen receptor-induced NF-kB activation in a Jurkat cell line using a luminescence assay. [Related pubchem assays (depositor defined):AID435003, AID435022, AID465, AID489029]; type: functional, cell-based; settings: Homo sapiens
Vero = experiment: mammalian cell viability reduction – secondary assay, cytotoxicity control for West Nile virus antiviral project, dose response (AID 1650); type: functional; settings: Chlorocebus sabaeus
[21] = OVCAR4 cell viability loss – plate reader, dry powder, SA11, cytotoxicity control for PAX8 inhibitor project, dose response (AID 743150); type: functional, cell-based; settings: OVCAR-4
[22] = IGROV1 cell killing – plate reader, dry powder samples, PAX8 inhibitor project, dose response (AID 743043); type: functional, cell-based; settings: IGROV-1
[23] = test system: Streptococcus sp. 'group A'; experiment: Streptococcus pyogenes SK(-)GAS viability under kanamycin – luminescence, BacTiterGlo, confirmation, counter-screen for streptokinase expression inhibitor project, dose response (AID 1900); type: functional, organism-based
HEK293 [24] = experiment: cells; type: functional, cell-based; settings: Homo sapiens; remark: listed apart in the source
[25] = OVCAR-3 cell viability loss – plate reader, dry powder samples, PAX8 inhibitor project, dose response (AID 743044); type: functional, cell-based

With O=S(=O)(Nc1cccc2cccnc12)c1ccccc1 the IC50 (HEK293 [1]) was > 80 µM (inactive), the IC50 (HEK293 [2]) was 11.7 µM (active) and the EC50 (Streptokinase A) was > 150 µM (not active). For the same molecule, the AC50 [3] was 33.2 µM (active), the AC50 [4] was 32.4 µM (active) and the EC50 [5] was > 20 µM (inactive). The AC50 [6] was 20.7 µM (active), the EC50 (BJ [7]) was > 150 µM (not active) and the EC50 (BJ [8]) was 17.2 µM (active). The IC50 [9] was 2.08 µM (active), the IC50 (HEK293 [10]) was 2.74 µM (active) and the EC50 [11] was 34 µM (active). The AC50 (Paired box protein Pax-8) was 6.46 µM (active), the IC50 (HEK293 [12]) was 1.83 µM (inactive) and the EC50 (Streptococcus) was 12.3 µM (active). The IC50 [13] was 51.9 µM (inactive), the EC50 (BJ [14]) was 28.1 µM (active) and the EC50 (HEK293 [15]) was > 20 µM (inactive). For the same molecule, the EC50 (BJ [16]) was 0.572 µM (active), the AC50 [17] was 19.3 µM (active) and the IC50 [18] was 2.75 µM (active). For the same molecule, the EC50 (Beta-galactosidase) was > 40 µM (inactive), the AC50 [19] was 15.3 µM (active) and the IC50 (HEK293 [20]) was 44.8 µM (inactive). The IC50 (Jurkat) was 0.89 µM (active), the CC50 (Vero) was 7.94 µM (active) and the AC50 [21] was 21.4 µM (active). The AC50 [22] was 26.3 µM (active), the EC50 [23] was 3.27 µM (active) and the IC50 (HEK293 [24]) was > 20 µM (inactive). For the same molecule, the AC50 [25] was 38.9 µM (active).

— ChEMBL document CHEMBL1201862, “PubChem BioAssay data set” (2004)
